Results on 4 compounds are retold here after US6455727B1, “Process for preparing carbetapentane tannate” (Jame Fine Chemicals, Inc., priority 2001, dated 2002).

For data set [1] the following is noted: background statement, cited from earlier work; for solubility in alcohol: alcohol(s).
A short description of data set [2]: solubility in water, alcohols and methylene chloride. The format is physicochemical. The note with it: description of product and starting materials.

Counter-ions that a name gives are not always drawn. Like-named read-outs stand apart in the source and are kept apart here.

For the compound `CCN(CC)CCOCCOC(=O)C1(c2ccccc2)CCCC1` [carbetapentane citrate], in data set [1], the solubility in alcohol result was “slightly soluble” and the solubility in water result is on record as “freely soluble”.
carbetapentane tannate: in data set [2], the solubility in alcohols entry is “soluble”, the “solubility in methylene chloride” value is recorded as “insoluble” and the solubility in water result is “slightly soluble”.
`CCN(CC)CCOCCOC(=O)C1(c2ccccc2)CCCC1` [carbetapentane, 2-(diethylaminoethoxy)ethyl-1-phenyl-1-cyclopentanecarboxylate]: in data set [2], the solubility in alcohols result is recorded as “soluble”, the “solubility in methylene chloride” value was “soluble” and the solubility in water entry is “insoluble”. Also, the solubility in water entry in data set [1] is on record as “insolubility”.
Regarding `O=C(OC[C@H]1O[C@@H](OC(=O)c2cc(O)c(O)c(OC(=O)c3cc(O)c(O)c(O)c3)c2)[C@H](OC(=O)c2cc(O)c(O)c(OC(=O)c3cc(O)c(O)c(O)c3)c2)[C@@H](OC(=O)c2cc(O)c(O)c(OC(=O)c3cc(O)c(O)c(O)c3)c2)[C@@H]1OC(=O)c1cc(O)c(O)c(OC(=O)c2cc(O)c(O)c(O)c2)c1)c1cc(O)c(O)c(OC(=O)c2cc(O)c(O)c(O)c2)c1` [tannic acid], in data set [2], the solubility in alcohols entry is recorded as “soluble”, the “solubility in methylene chloride” value is “insoluble” and the solubility in water entry is “soluble”. In data set [1], the solubility in alcohol entry is on record as “highly soluble” and the solubility in water entry is “highly soluble”.
